Assay results published in US20250230193A1, “CYCLIC COMPOUND HAVING SELECTIVE KRAS INHIBITORY EFFECT ON HRAS AND NRAS” (CHUGAI SEIYAKU KABUSHIKI KAISHA, priority 2022, published 2025).

What was measured:
[1] = biological target: GDP-bound NRAS wild-type protein (Homo sapiens, UniProt P01111); assay: Binding to NRAS by surface plasmon resonance (SPR), Single Cycle Kinetics; settings: SPR, GDP-bound NRAS wild-type vs GDP-bound KRAS wild-type
[2] = biological target: GDP-bound HRAS wild-type protein (Homo sapiens, UniProt P01112); assay: Binding to HRAS by surface plasmon resonance (SPR), Single Cycle Kinetics; settings: SPR, GDP-bound HRAS wild-type vs GDP-bound KRAS wild-type
Sequence of GDP-bound HRAS wild-type protein (P01112 whole entry): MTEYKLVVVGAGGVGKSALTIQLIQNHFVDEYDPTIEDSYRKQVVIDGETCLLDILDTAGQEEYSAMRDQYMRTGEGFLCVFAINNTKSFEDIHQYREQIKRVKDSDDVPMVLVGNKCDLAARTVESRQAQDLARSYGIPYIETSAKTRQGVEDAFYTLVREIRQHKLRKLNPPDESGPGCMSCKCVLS

Sequence of GDP-bound NRAS wild-type protein (P01111 whole entry): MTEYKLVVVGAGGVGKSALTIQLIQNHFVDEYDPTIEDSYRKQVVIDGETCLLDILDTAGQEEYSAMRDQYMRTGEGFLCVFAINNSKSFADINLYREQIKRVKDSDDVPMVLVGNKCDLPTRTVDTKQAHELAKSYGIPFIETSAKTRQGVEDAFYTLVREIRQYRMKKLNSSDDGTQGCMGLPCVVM

SMILES	NRAS/KRAS (ratio of KD value with respect to NRAS to KD value with respect to KRAS) [1]	HRAS/KRAS (ratio of KD value with respect to HRAS to KD value with respect to KRAS) [2]
CCC[C@@H]1C[C@H]2C(=O)NC3(CC(C)(C)C3)C(=O)N(C)[C@@H](C3CCCC3)C(=O)N(C)[C@H](C(=O)N(C)C)CC(=O)N(C)[C@@H](C)C(=O)N[C@@H]([C@@H](C)CC)C(=O)N(C)CC(=O)N(C)[C@H]3C/C=C\CCN(C3=O)[C@@H](Cc3ccc(C(F)(F)F)cc3)C(=O)N(C)CC(=O)N[C@@H](CCc3cc(F)c(C(F)(F)F)c(F)c3)C(=O)N2C1 [PP2273]	AA (a compound having 20 or more is denoted as AA)	A (a compound having 10 or more and less than 20 is denoted as A)
CCC[C@@H]1C[C@H]2C(=O)NC3(CC(C)(C)C3)C(=O)N(C)[C@@H](C3CCCC3)C(=O)N(C)[C@H](C(=O)N(C)C)CC(=O)N(C)[C@@H](COC)C(=O)N[C@@H]([C@@H](C)CC)C(=O)N(C)CC(=O)N(C)[C@H]3C/C=C\CCN(C3=O)[C@@H](Cc3ccc(C(F)(F)F)cc3)C(=O)N(C)CC(=O)N[C@@H](CCc3ccc(C(F)(F)F)c(Cl)c3)C(=O)N2C1 [PP2275]	A (a compound having 10 or more and less than 20 is denoted as A)	A (a compound having 10 or more and less than 20 is denoted as A)
CCC[C@H]1C(=O)N[C@@H]([C@@H](C)CC)C(=O)N(C)CC(=O)N(C)[C@H]2C/C=C\CCN(C2=O)[C@@H](Cc2ccc(C(F)(F)F)cc2)C(=O)N(C)CC(=O)N[C@@H](CCc2ccc(C(F)(F)F)c(OC)c2)C(=O)N2C[C@H](OCC)C[C@H]2C(=O)N(C)C2(CCC2)C(=O)N(C)[C@@H](C2CCCC2)C(=O)N(C)[C@H](C(=O)N(C)C)CC(=O)N1C [PP2312]	A (a compound having 10 or more and less than 20 is denoted as A)	B (a compound having 3 or more and less than 10 is denoted as B)
CCC[C@H]1C(=O)N[C@@H]([C@@H](C)CC)C(=O)N(C2CC2)CC(=O)N(C)[C@H]2C/C=C\CCN(C2=O)[C@@H](Cc2ccc(C(F)(F)F)cc2)C(=O)N(C)CC(=O)N[C@@H](CCc2ccc(C(F)(F)F)c(OC)c2)C(=O)N2C[C@H](OCC)C[C@H]2C(=O)N(C)C2(CCC2)C(=O)N(C)[C@@H](C(CC)CC)C(=O)N(C)[C@H](C(=O)N(C)C)CC(=O)N1C [PP2313]	AA (a compound having 20 or more is denoted as AA)	A (a compound having 10 or more and less than 20 is denoted as A)
CCOC[C@H]1C(=O)N[C@@H]([C@@H](C)CC)C(=O)N(C2CC2)CC(=O)N(C)[C@H]2C/C=C\CCN(C2=O)[C@@H](Cc2ccc(C(F)(F)F)cc2)C(=O)N(C)CC(=O)N[C@@H](CCc2ccc(C(F)(F)F)c(OC)c2)C(=O)N2C[C@H](OCC)C[C@H]2C(=O)N(C)C2(CCC2)C(=O)N(C)[C@@H](C(CC)CC)C(=O)N(C)[C@H](C(=O)N(C)C)CC(=O)N1C [PP2315]	A (a compound having 10 or more and less than 20 is denoted as A)	A (a compound having 10 or more and less than 20 is denoted as A)
CCC[C@H]1C(=O)N[C@@H]([C@@H](C)CC)C(=O)N(C2CC2)CC(=O)N(C)[C@H]2C/C=C\CCN(C2=O)[C@@H](Cc2ccc(C(F)(F)F)cc2)C(=O)N(C)CC(=O)N[C@@H](CCc2ccc(C(F)(F)F)c(OC)c2)C(=O)N2C[C@H](OCC)C[C@H]2C(=O)N(C)C2(CCC2)C(=O)N(C)[C@@H](C2CCCC2)C(=O)N(C)[C@H](C(=O)N(C)C)CC(=O)N1C [PP2316, (2S,8S,12R,14S,20S,23S,27S,30S,36S,38Z)-20-cyclopentyl-32-cyclopropyl-12-ethoxy-8-[2-[3-methoxy-4-(trifluoromethyl)phenyl]ethyl]-N,N,4,16,19,22,26,35-octamethyl-30-[(1S)-1-methylpropyl]-3,6,9,15,18,21,25,28,31,34,42-undecaoxo-27-propyl-2-[[4-(trifluoromethyl)phenyl]methyl]spiro[1,4,7,10,16,19,22,26,29,32,35-undecazatricyclo[34.5.1.0^10,14]dotetracont-38-ene-17,1′-cyclobutane]-23-carboxamide]	A (a compound having 10 or more and less than 20 is denoted as A)	A (a compound having 10 or more and less than 20 is denoted as A)
CCC[C@H]1C(=O)N[C@@H]([C@@H](C)CC)C(=O)N2CCC[C@H]2C(=O)N(C)[C@H]2C/C=C\CCN(C2=O)[C@@H](Cc2ccc(C(F)(F)F)cc2)C(=O)N(C)CC(=O)N[C@@H](CCc2ccc(C(F)(F)F)c(OC)c2)C(=O)N2C[C@H](OCC)C[C@H]2C(=O)N(C)C2(CCC2)C(=O)N(C)[C@@H](C(CC)CC)C(=O)N(C)[C@H](C(=O)N(C)C)CC(=O)N1C [PP2317]	A (a compound having 10 or more and less than 20 is denoted as A)	A (a compound having 10 or more and less than 20 is denoted as A)
CCCOC[C@H]1C(=O)N[C@@H]([C@@H](C)CC)C(=O)N(C2CC2)CC(=O)N(C)[C@H]2C/C=C\CCN(C2=O)[C@@H](Cc2ccc(C(F)(F)F)cc2)C(=O)N(C)CC(=O)N[C@@H](CCc2ccc(C(F)(F)F)c(OC)c2)C(=O)N2C[C@H](OCC)C[C@H]2C(=O)N(C)C2(CCC2)C(=O)N(C)[C@@H](C2CCCC2)C(=O)N(C)[C@H](C(=O)N(C)C)CC(=O)N1C [PP2318]	A (a compound having 10 or more and less than 20 is denoted as A)	A (a compound having 10 or more and less than 20 is denoted as A)
CCOC[C@H]1C(=O)N[C@@H]([C@@H](C)CC)C(=O)N2CCC[C@H]2C(=O)N(C)[C@H]2C/C=C\CCN(C2=O)[C@@H](Cc2ccc(C(F)(F)F)cc2)C(=O)N(C)CC(=O)N[C@@H](CCc2ccc(C(F)(F)F)c(OC)c2)C(=O)N2C[C@H](OCC)C[C@H]2C(=O)N(C)C2(CCC2)C(=O)N(C)[C@@H](C(CC)CC)C(=O)N(C)[C@H](C(=O)N(C)C)CC(=O)N1C [PP2319]	AA (a compound having 20 or more is denoted as AA)	A (a compound having 10 or more and less than 20 is denoted as A)
CCC[C@H]1C(=O)N[C@@H]([C@@H](C)CC)C(=O)N2CCC[C@H]2C(=O)N(C)[C@H]2C/C=C\CCN(C2=O)[C@@H](Cc2ccc(C(F)(F)F)cc2)C(=O)N(C)CC(=O)N[C@@H](CCc2ccc(C(F)(F)F)c(OC)c2)C(=O)N2C[C@H](OCC)C[C@H]2C(=O)N(C)C2(CCC2)C(=O)N(C)[C@@H](C2CCCC2)C(=O)N(C)[C@H](C(=O)N(C)C)CC(=O)N1C [PP2320, (1S,4S,10S,13S,17S,20S,26S,28R,32S,38S,42Z)-20-cyclopentyl-28-ethoxy-32-[2-[3-methoxy-4-(trifluoromethyl)phenyl]ethyl]-N,N,2,14,18,21,24,36-octamethyl-10-[(1S)-1-methylpropyl]-3,9,12,15,19,22,25,31,34,37,45-undecaoxo-13-propyl-38-[[4-(trifluoromethyl)phenyl]methyl]spiro[2,8,11,14,18,21,24,30,33,36,39-undecazatetracyclo[37.5.1.0^4,8.0^26,30]pentatetracont-42-ene-23,1′-cyclobutane]-17-carboxamide]	A (a compound having 10 or more and less than 20 is denoted as A)	A (a compound having 10 or more and less than 20 is denoted as A)
